Test system: healthy subjects
Assay: Example 2: conjunctiva congestion rating
Assay type: in vivo, human
Text: Conjunctiva Congestion was rated by a trained observer on a scale of 0-3 based on the blood vessels present as follows:
0—None (The white of the eye was not affected)
3—Considerable (The compete white of the eye is red caused by a pattern of bigger vessels. This is associated with complaints.)
Changes from baseline in conjunctiva congestion and heart rate were compared for all time-points measured, and summarized using descriptive statistics. Subjective ratings were individually tabulated and sorted by treatment group, subject number, and time, and summarized using descriptive statistics. Separate tables were provided to summarize differences between males and females if applicable. Pharmacodynamic assessments were compared with delta-9 THC and 11-OH-THC blood concentrations and summarized using descriptive statistics.

## CCCCCc1cc(O)c2c(c1)OC(C)(C)[C@@H]1CCC(C)=C[C@@H]21 [delta-9-THC, delta-9-tetrahydrocannabinol]
1.2 mg, Day 12, 10 minutes after dosing
  subjects with slight conjunctiva congestion: only one subject
1.2 mg, Day 12, one subject
  time to resolution of conjunctiva congestion post-dose: ≤ 4 h
Groups I and II (1.2 mg and 3.6 mg)
  conjunctiva congestion, rest of the study: No other observation of conjunctiva congestion

From US20070020193A1, “Dronabinol compositions and methods for using same” (priority 2005, published 2007)
